Reference: paper PMC6857134, “Antimicrobial functional divergence of the cecropin antibacterial peptide gene family in Musca domestica” (Parasites & Vectors, 2019)
≈ marks a conversion by molar mass, not a printed value. Residues, ends and D or L forms follow the SMILES beside them. No end group written: not given here.

Columns and labels:
A. baumannii 4367992 = assay: MIC by broth microdilution; assay type: cell-based, Acinetobacter baumannii; conditions: 37 °C, 24 h; for MIC / inhibitory concentration against A. baumannii: strain not given, broth microdilution
Experimental: (§1) Evaluation of the MIC of synthetic peptides was performed using broth microdilution techniques according to the guidelines of the Clinical and Laboratory Standards Association (CLSI). The antimicrobial spectrum and biological activity of the above chemically synthesized peptides were tested against six Gram-positive bacteria, five Gram-negative bacteria and one fungus. Overnight cultures of the 11 bacteria were grown in MHB at 37 °C and C. albicans was grown in Sabouraud dextrose broth (SDB) medium (Sangon, Shanghai, China) and cultured at 37 °C to mid-log phase and diluted to 1.5 × 10^6 CFU/ml. In a polypropylene 96-well round-bottom plate, 50 μl of bacteria was mixed with 50 μl of designed synthetic peptide dissolved in sterile distilled water (final concentration of 0–64 μM). Sterile distilled water was used as a negative control and polymyxin B dissolved in sterile distilled water as a positive control.

A. baumannii (4367992) = assay: Time-killing assay (growth curve, absorbance at 600 nm); assay type: cell-based, Acinetobacter baumannii
Experimental: The effect of peptides on the growth of an A. baumannii (4367992) isolate was examined as follows: the strain was cultured in nutrient agar for 18–20 h and adjusted to 0.5 McFarland units with MHB medium, then diluted 1:20 in MHB medium. Each peptide was added to one culture tube at a final concentration of 1× MIC or 2× MIC. […] The cultures were incubated for 24 h at 37 °C with shaking at 200× rpm, and the absorbance at 600 nm of 1 ml aliquots was recorded at 0.5–2 h intervals.

[1] = test system: tested microorganisms (Gram-positive bacteria, Gram-negative bacteria, one fungus); assay: MIC by broth microdilution, summary over the panel of tested microorganisms; assay type: cell-based; conditions: at concentrations up to 32 μM
Experimental: as §1

[2] = test system: extensive-drug-resistant A. baumannii (4367992); assay: Leakage of 260 nm absorbing material; assay type: cell-based, Acinetobacter baumannii; conditions: 0.5× MIC and 2× MIC, 0–8 h, 37 °C, 1 × 10^6 CFU/ml; three independent experiments
Experimental: The reference method was slightly modified, taking the logarithmic growth phase of extensive-drug-resistant A. baumannii (4367992) as detected bacteria. Five millilitres of bacterial suspension (1 × 10^6 CFU/ml) was treated with different concentrations of antimicrobial peptides (0.5× MIC, 2× MIC). After being placed at 37 °C and 150× rpm, aliquots (0.5 ml) of the treated bacterial suspension were removed at different intervals (0, 0.5, 1, 2, 4, 6 and 8 h). The aliquots were centrifuged (1000× rpm, 5 min) and the absorbance of supernatant was measured at 260 nm, using PBS as the control.

CC[C@H](C)CCCCC(=O)N[C@@H](CCN)C(=O)N[C@H](C(=O)N[C@@H](CCN)C(=O)N[C@H]1CCNC(=O)[C@H]([C@@H](C)O)NC(=O)[C@H](CCN)NC(=O)[C@H](CCN)NC(=O)[C@H](CC(C)C)NC(=O)[C@@H](Cc2ccccc2)NC(=O)[C@H](CCN)NC1=O)[C@@H](C)O [polymyxin B, reference compound] (HELM PEPTIDE1{[CC[C@H](C)CCCCC(=O)[*:2]].[Dab].T.[Dab].[Dab].[Dab].[dF].L.[Dab].[Dab].T}$PEPTIDE1,PEPTIDE1,5:R3-11:R2$$$V2.0; N-terminus assumed; bridges inferred)
MIC (A. baumannii 4367992; A. baumannii 4367992 (extensive-drug-resistant isolate), broth microdilution (CLSI), MHB, visual growth): 1.05 µM (≈ 1.26 µg/mL)
duration of antibacterial effect on A. baumannii (A. baumannii (4367992); Cec4 at 1× MIC and 2× MIC, polymyxin B at 1× MIC (1.05 μM), MHB, 37 °C, 200 rpm, absorbance 600 nm over 24 h, three independent experiments): ≤ 12 h

GWLKDFGRRIERVGQHTRDATIQAIGVAQQATDVAATLKGK [Cec9]
inhibitory effect on the other experimental strains (other than E. coli) [1]: no inhibitory effect

GWLKKIGKKIERVGQNTRDATIQAIGVAQQAANVAATLKGK [Cec4]
MIC / inhibitory concentration against A. baumannii (A. baumannii 4367992): 0.5 µM
time-kill kinetics, killing pattern (A. baumannii (4367992); A. baumannii in the logarithmic growth phase): rapid and concentration-dependent killing pattern
leakage of 260 nm absorbing material (maximum absorbance at 260 nm) [2]: dose-dependent increase

GWLKKVGKKIERVGQHTRDATIQGLGVAQQAANVVATVKGK [Cec3]
MIC / inhibitory concentration against A. baumannii (A. baumannii 4367992): 32 µM
